According to ChEMBL document CHEMBL2321853, “Novel acylethanolamide derivatives that modulate body weight through enhancement of hypothalamic pro-opiomelanocortin (POMC) and/or decreased neuropeptide Y (NPY)” (J Med Chem, 2013):

Legend:
[1] = test system: Mus musculus; experiment: Antiobesity activity in Sabra mouse assessed as change in body weight at 1 mg/kg, ip administered on day 8, 9, 10, 11, 14, 18, 24 and 32 measured on day 4 relative to control; assay type: functional; conditions: route intraperitoneal
[2] = test system: Mus musculus; experiment: Antiobesity activity in Sabra mouse assessed as reduction in body weight at 10 mg/kg, ip administered on day 6 to 10 measured on day 16 relative to control; assay type: functional; set-up: scale not given: the % may be the effect or the level left; conditions: route intraperitoneal
[3] = target: Cannabinoid receptor 2 (Homo sapiens) (UniProt P34972); experiment: Displacement of [3H]WIN-55,212-2 from human recombinant CB2 receptor expressed in CHO-K1 cells at 10 uM relative to control; assay type: cell-based
Chain of Cannabinoid receptor 2 (Homo sapiens) (P34972 whole entry): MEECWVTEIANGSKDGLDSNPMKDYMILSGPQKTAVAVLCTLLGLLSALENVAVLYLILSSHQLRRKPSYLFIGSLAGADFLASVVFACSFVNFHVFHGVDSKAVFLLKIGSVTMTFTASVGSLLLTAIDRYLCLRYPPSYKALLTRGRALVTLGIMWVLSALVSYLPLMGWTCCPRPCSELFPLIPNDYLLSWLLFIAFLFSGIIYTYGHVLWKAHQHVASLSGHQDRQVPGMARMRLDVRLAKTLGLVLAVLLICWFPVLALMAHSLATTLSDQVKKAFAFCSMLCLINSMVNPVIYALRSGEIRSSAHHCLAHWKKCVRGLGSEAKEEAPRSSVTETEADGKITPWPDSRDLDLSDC

[4] = test system: Mus musculus; experiment: Toxicity in Sabra mouse assessed as morphological changes in neuronal cells at 1 mg/kg, ip administered on day 8, 9, 10, 11, 14, 18, 24 and 32 by hematoxylin and eosin staining-based histopathological analysis; assay type: organism-based; set-up: dose 1 mg/kg, route intraperitoneal; conditions: in vivo
[5] = test system: Mus musculus; experiment: Hepatotoxicity in Sabra mouse assessed as coagulative necrosis changes at 1 mg/kg, ip administered on day 8, 9, 10, 11, 14, 18, 24 and 32 by hematoxylin and eosin staining-based histopathological analysis; assay type: toxicity, organism-based; set-up: dose 1 mg/kg, route intraperitoneal; conditions: in vivo

Molecule CCCCCCCC/C=C\CCCCCCCC(=O)N[C@H](CO)C(C)C has an Activity [1] of 0.5%, an Activity [2] of 6.4% and an inhibition [3] of 18%. For the same molecule, the Activity [4] was “Non-toxic” and the Activity [5] was “Non-toxic”.
